Results published in PubChem BioAssay (NCI).
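Dose response: 5 concentrations. Exposure: 48 h. Format: 96-well plates. Endpoint: linear interpolation; highest concentration if not reached. At the GI50, growth is halved. TGI: concentration producing complete growth inhibition.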

Assays:
Assay in all cases: inhibition of tumour cell growth, NCI panel, 48 h
DU-145 prostate = tested on: DU-145 prostate
EKVX NSCLC = tested on: EKVX NSCLC
K-562 leukemia = tested on: K-562 leukemia
KM12 colon = tested on: KM12 colon
MCF7 breast = tested on: MCF7 breast
SF-295 CNS = tested on: SF-295 CNS
T-47D breast = tested on: T-47D breast
MALME-3M melanoma = tested on: MALME-3M melanoma

Row | SMILES | GI50 (DU-145 prostate) [µM] | TGI (DU-145 prostate) [µM] | GI50 (EKVX NSCLC) [µM] | TGI (EKVX NSCLC) [µM] | GI50 (K-562 leukemia) [µM] | TGI (K-562 leukemia) [µM] | GI50 (KM12 colon) [µM] | TGI (KM12 colon) [µM] | GI50 (MCF7 breast) [µM] | TGI (MCF7 breast) [µM] | GI50 (SF-295 CNS) [µM] | TGI (SF-295 CNS) [µM] | GI50 (T-47D breast) [µM] | TGI (T-47D breast) [µM] | GI50 (MALME-3M melanoma) [µM] | TGI (MALME-3M melanoma) [µM]
1 | COc1cc(-c2cc3ncccc3c3nc(N)c4cccnc4c23)cc(OC)c1OC | 0.487 | 3.13 | 0.763 | 50.4 | 0.169 | 14.5 | 0.36 | 33.4 | 0.327 | > 100 | 0.308 | 15.5 | 0.824 | 32 |  | 
2 | COc1cccc(-c2cc(=O)c3cc(OC)ccc3[nH]2)c1 | 0.186 |  | 5.85 | > 100 | 0.0288 | 0.393 | 0.0671 | > 100 | 0.296 | > 100 | 0.292 |  |  |  | 0.0479 | > 100
3 | CO[C@H]1/C=C/O[C@@]2(C)Oc3c(C)c(O)c4c(c3C2=O)C(=O)C(/C=N/N(c2ccccc2)c2ccccc2)=C(NC(=O)/C(C)=C\C=C\[C@H](C)[C@H](O)[C@@H](C)[C@@H](O)[C@@H](C)[C@H](OC(C)=O)[C@@H]1C)C4=O | 1.93 | 3.51 |  |  | 2.69 | 9.36 | 1.75 | 3.24 | 1.95 | 4.23 | 1.59 | 3 | 1.84 | 3.85 | 1.89 | 3.59
4 | CCc1cccc(C)c1NC(=O)c1sc2nc3c(cc2c1N)CCCCC3 | 3.28 | > 100 | 4.17 | > 100 |  |  | 3.46 | > 100 | 1.86 | > 100 | 3.05 | > 100 | 4.65 | > 100 | 9.11 | 84.4
5 | Nc1ccc(C2=NN(c3ccccc3)C(c3ccc(Cl)cc3)C2)cc1 (configuration not stated) | 3.54 | 11.3 |  |  |  |  | 1.68 | 3.11 | 1.32 | 3.82 | 9 | 24.9 | 2.06 | 4.48 | 16.2 | 43.8
6 | Cn1cc(C2=C(c3cn(CCCCN)c4ccccc34)C(=O)NC2=O)c2ccccc21 | > 25 | > 25 |  |  | > 25 | > 25 | > 25 | > 25 | > 25 | > 25 |  | > 25 | > 25 | > 25 | > 25 | > 25
7 | O=C(CP(=O)(O)O)NC(CC(=O)OCc1ccccc1)C(=O)OCc1ccccc1 (configuration not stated) |  | > 100 |  | > 100 |  | > 100 |  |  |  |  |  | > 100 |  | > 100 |  | > 100
8 | CCCC(=O)NC1=C(Cl)C(=O)c2ccccc2C1=O |  | 20.9 |  | 16.8 |  | 7.43 |  | 15.2 |  | 7.39 |  | 17.1 |  | 8.02 |  | 
9 | Oc1[nH]c2ccccc2c1N=Nc1ccccn1 |  | > 100 |  | > 100 |  | > 100 |  | 97.8 |  | > 100 |  | > 100 |  | > 100 |  | 
10 | Cc1cc(=O)oc2cc(OC(=O)N(C)C)c(Cl)cc12 |  | > 100 |  | > 100 |  | > 100 |  | > 100 |  | > 100 |  |  |  | > 100 |  | > 100
11 | COc1cc(NC(N)=NCCC(C)(C)Oc2ccc(C(F)(F)F)cc2)ncc1C#N | 1.72 | 3.12 | 1.45 | 2.85 |  |  | 1.68 | 3.17 | 1.61 | 3.18 | 1.57 | 2.99 | 1.56 | 3.29 | 1.81 | 3.44
12 | COC(=O)[C@@H](C)C[C@H](Cc1ccccc1)NC(=O)c1csc(CC[C@H](C(C)C)N(C)C(=O)[C@@H](NC(=O)[C@H]2CCCCN2C)C(C)C)n1 | 0.303 | > 19.7 | 1.33 | > 33.3 | 0.131 | > 33.3 | 0.324 | > 33.3 | 0.078 | > 33.3 | 0.334 | > 33.3 |  |  |  | 
13 | COc1ccc2c(c1)C(=O)c1c-2n(CCCN=[N+]=[N-])c(=O)c2cc(OC)c(OC)cc12 | 26.6 | > 100 | > 100 | > 100 |  |  | > 100 | > 100 | 81.4 | > 100 | 18 | > 100 | > 100 | > 100 | 66.4 | > 100
14 | O=c1c(Oc2ccc(F)cc2F)cc2cnc(NC3CCOCC3)nc2n1CCCO | > 25 | > 25 |  |  | > 25 | > 25 | > 25 | > 25 | > 25 | > 25 | > 25 | > 25 | > 25 | > 25 | > 25 | > 25
15 | C=C(c1ccc2nc(NC(=O)OC)[nH]c2c1)c1cccs1 |  | > 100 |  | > 100 |  | > 35.5 |  | > 100 |  | > 100 |  | 0.934 |  |  |  | > 100
